Earlier results in patent publication US9082274B2, “Odor generation alarm and method for informing unusual situation” (priority 2008, dated 2015).
Read-outs that look alike come from different tables or passages of the source.

Legend:
[1] = test system: person; settings: concentration in air, ppm by amount of substance
[2] = test system: person; settings: with respect to a person, ppm by amount of substance
[3] = test system: mice; settings: exposed for four hours
[4] = test system: rats; settings: exposed for four hours
[5] = test system: mice; settings: oral
[6] = test system: domestic rabbits; settings: AIT diluted to 0.1% to 10% with corn oil introduced into the eyes
[7] = test system: humans
[8] = test system: rabbits
[9] = orally administered; route not printed in b8
[10] = test system: skin, eyes

Compound	concentration at which a person becomes unable to tolerate the atmosphere / strength of smell [1]	concentration at which a person starts to notice a pungent odor [1]	concentration from which a person recognizes the smell of wasabi [1]	concentration at which a person becomes unable to tolerate the atmosphere / strength of smell ([1]; listed as allyl isothiocyanate)	no observed effect concentration [2]	lethal inhaled concentration (inhaled LC50) [3]	lethal inhaled concentration (inhaled LC50) [4]	orally administered lethal dose (LD50) [5]	ocular findings after instillation [6]	lachrymatory effect [7]	acute dermal toxicity LD50 [8]	solubility in water	lethal dose (LD50) [9]	effect when entering the eyes ([10]; eye contact)	effect when coming into contact with the skin ([10]; skin contact)
C=CCN=C=S [AIT, allyl isothiocyanate]	≥ 10 ppm	~1 ppm	around 5 ppm	10 ppm	74.3 ppm	155 ppm	173 ppm	310 mg/kg	nothing more than transient edema and conjunctival hyperemia	there is a lachrymatory effect on humans	88 mg/kg	does not dissolve easily in water	–	–	–
CS [methyl mercaptan]	–	–	–	–	–	–	–	–	–	–	–	–	2.4 mg/kg	reddening and pain when entering the eyes	reddening and pain of the skin
